According to US8921376B2, “Pyrrolopyridines useful as inhibitors of protein kinase” (Vertex Pharmaceuticals Incorporated, priority 2005, dated 2014):

Legend:
Type in all cases: biochemical
JAK2 = JAK2 (Homo sapiens, UniProt O60674); assay: JAK2 inhibition assay (as Example 3 with JAK-2 enzyme)
Summary of the method: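 In HEPES pH 7.4 buffer with 10 mM MgCl2, 1 mM DTT, 25 mM NaCl and 0.01% BSA, JAK2 enzyme phosphorylated poly(Glu)4Tyr (final 15 μM) using 33P-ATP (final 12 μM) for 20 min at room temperature (25 °C). Reactions stopped with TCA; incorporated 33P measured by scintillation after filtration.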

ROCK I = ROCK I (Homo sapiens, UniProt Q13464); assay: ROCK-I inhibition assay (radioactive enzyme assay, MBP substrate)
Sequence of ROCK I (Q13464 whole entry): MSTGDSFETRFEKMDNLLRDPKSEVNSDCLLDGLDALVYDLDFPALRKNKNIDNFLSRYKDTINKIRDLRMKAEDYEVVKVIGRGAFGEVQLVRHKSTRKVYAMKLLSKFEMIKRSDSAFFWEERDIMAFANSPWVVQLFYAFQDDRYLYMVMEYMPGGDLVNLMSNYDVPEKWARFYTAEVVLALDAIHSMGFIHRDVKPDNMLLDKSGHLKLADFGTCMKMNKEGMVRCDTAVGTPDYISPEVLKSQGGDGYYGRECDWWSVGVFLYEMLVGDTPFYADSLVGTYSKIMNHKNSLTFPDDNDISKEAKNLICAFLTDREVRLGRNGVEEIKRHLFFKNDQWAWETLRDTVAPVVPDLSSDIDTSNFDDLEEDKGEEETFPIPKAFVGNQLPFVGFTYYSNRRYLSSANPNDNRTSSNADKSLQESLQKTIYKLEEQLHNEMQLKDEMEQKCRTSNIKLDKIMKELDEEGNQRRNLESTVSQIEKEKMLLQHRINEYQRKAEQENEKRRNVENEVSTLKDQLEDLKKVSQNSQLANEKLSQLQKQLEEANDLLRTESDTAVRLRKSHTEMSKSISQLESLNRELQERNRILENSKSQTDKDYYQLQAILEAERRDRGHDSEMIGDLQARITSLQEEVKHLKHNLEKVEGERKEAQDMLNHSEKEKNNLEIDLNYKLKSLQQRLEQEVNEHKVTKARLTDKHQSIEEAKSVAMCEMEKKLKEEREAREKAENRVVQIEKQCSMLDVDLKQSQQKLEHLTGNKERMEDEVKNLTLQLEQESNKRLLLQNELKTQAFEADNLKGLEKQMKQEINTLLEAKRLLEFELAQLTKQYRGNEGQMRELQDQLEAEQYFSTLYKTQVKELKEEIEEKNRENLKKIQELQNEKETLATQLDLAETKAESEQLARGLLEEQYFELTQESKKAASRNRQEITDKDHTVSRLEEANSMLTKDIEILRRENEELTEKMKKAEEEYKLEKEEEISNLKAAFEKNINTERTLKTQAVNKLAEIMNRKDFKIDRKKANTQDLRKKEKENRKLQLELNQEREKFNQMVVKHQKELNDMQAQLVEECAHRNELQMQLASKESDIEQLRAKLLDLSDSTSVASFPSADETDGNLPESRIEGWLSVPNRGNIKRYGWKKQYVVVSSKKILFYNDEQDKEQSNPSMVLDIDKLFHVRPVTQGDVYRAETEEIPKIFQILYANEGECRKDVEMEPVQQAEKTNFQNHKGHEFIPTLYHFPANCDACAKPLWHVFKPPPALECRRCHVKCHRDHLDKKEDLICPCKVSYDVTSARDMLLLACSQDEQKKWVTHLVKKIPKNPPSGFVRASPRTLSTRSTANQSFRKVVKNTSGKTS
Summary of the method: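 Human ROCK at 5 nM phosphorylated 27 μM myelin basic protein with 13 μM [γ-33P]ATP (final) in HEPES pH 7.5, MgCl2, NaCl, DTT and 1.5% DMSO. Reactions ran 2 h at room temperature before TCA quench and filter-plate scintillation counting. After background subtraction, data were fit to give Ki(app).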

JAK3 = biological target: T1, JAK3 (Homo sapiens, UniProt P52333); assay: JAK3 inhibition assay (33P incorporation into poly(Glu)4Tyr)
T1 sequence (P52333 1-1124): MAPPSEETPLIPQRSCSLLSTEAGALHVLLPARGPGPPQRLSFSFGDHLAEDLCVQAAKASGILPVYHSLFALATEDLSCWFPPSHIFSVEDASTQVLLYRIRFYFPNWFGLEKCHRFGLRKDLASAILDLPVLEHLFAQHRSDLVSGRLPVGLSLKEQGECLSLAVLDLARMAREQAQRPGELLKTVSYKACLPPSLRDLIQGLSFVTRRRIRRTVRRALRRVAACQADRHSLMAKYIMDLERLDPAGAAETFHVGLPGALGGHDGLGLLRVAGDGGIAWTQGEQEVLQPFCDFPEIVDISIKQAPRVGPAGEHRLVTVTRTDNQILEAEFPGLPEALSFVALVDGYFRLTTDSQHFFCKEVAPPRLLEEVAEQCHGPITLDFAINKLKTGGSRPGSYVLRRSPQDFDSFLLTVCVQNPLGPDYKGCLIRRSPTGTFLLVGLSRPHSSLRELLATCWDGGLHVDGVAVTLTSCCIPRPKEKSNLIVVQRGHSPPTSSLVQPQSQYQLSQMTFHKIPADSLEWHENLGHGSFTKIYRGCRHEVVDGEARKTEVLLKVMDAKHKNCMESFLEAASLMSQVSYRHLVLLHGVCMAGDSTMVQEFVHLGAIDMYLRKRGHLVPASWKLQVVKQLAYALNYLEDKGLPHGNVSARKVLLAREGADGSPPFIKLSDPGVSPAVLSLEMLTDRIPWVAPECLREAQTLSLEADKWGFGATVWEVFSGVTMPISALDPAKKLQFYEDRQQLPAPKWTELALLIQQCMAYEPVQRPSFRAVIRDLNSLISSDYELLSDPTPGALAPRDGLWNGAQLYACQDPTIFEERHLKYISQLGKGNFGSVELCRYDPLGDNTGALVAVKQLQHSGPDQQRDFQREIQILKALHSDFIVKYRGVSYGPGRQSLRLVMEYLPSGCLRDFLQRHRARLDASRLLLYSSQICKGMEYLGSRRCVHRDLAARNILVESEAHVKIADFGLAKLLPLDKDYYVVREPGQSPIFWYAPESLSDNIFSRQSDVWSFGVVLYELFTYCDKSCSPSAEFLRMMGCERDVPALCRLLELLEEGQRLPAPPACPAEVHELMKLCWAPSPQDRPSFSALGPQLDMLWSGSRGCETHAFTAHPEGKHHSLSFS
Summary of the method: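 After TCA quench and filter harvest, scintillation counting of 33P measured phosphorylation of poly(Glu)4Tyr (1 μM) by 1 nM JAK3. The 20-min, 25° C. reaction contained 5 μM ATP (200 μCi/μmole) in pH 7.4 HEPES buffer with 10 mM MgCl2.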

[1] = Table 6, enzyme inhibition data (Ki)
[2] = enzyme inhibition, Ki(app), Table 5

Sequence of JAK2 (O60674 whole entry): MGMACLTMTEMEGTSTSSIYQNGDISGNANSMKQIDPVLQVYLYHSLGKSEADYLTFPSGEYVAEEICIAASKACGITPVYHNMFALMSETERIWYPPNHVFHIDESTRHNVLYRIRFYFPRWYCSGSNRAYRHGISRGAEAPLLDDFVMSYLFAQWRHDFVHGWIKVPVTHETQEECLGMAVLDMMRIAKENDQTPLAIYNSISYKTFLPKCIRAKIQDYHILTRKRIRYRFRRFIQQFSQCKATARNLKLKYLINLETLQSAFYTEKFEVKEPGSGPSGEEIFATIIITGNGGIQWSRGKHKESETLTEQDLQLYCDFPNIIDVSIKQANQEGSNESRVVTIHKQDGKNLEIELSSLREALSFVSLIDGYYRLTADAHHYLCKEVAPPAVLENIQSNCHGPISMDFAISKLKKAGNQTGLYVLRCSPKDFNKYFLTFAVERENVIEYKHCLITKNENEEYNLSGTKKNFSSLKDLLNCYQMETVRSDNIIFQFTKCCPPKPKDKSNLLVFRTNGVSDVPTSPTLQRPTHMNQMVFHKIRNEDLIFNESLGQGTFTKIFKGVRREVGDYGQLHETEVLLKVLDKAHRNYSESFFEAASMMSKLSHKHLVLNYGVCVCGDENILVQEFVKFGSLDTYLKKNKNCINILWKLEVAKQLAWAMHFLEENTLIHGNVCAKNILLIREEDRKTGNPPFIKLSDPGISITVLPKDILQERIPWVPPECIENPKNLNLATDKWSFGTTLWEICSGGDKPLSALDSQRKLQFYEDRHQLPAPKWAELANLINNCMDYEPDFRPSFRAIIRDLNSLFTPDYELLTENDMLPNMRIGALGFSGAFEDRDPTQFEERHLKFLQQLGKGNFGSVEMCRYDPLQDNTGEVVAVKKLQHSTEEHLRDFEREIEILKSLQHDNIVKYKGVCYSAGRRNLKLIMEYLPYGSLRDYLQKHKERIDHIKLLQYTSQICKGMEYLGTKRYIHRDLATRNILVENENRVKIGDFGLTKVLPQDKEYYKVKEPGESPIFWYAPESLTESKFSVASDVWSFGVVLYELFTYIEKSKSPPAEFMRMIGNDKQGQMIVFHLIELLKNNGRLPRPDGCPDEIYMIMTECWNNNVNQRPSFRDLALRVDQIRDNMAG

Row | Structure (SMILES) | Ki (JAK2; [1]) [nM] | Ki (ROCK I; [1]) [nM] | Ki (JAK3; [1]) [nM] | Ki (JAK2; enzyme inhibition, Table 5) [nM] | Ki (ROCK I; [2]) [nM] | Ki (JAK3; enzyme inhibition, Table 5) [nM]
1 | COc1ccc(-c2ccnc3[nH]ccc23)c(OC)c1 [compound 220] | 500 to 5000 | 500 to 5000 | 500 to 5000 |  |  | 
2 | CN(C)CCCN(C)C(=O)c1cc(-c2c(Cl)cnc3[nH]ccc23)c[nH]1 [compound 349] | 500 to 5000 | > 4000 | 500 to 5000 |  |  | 
3 | COc1ccc(F)cc1-c1ccnc2[nH]ccc12 [compound 205] | 500 to 5000 | 500 to 5000 | 500 to 5000 |  |  | 
4 | COc1cccc(-c2ccnc3[nH]ccc23)c1OC [compound 233] | > 5000 | 500 to 5000 | 500 to 5000 |  |  | 
5 | Cc1cc(C)cc(-c2ccnc3[nH]ccc23)c1 [compound 112, 4-(3,5-Dimethyl-phenyl)-1H-pyrrolo[2,3-b]pyridine] |  |  |  | < 500 | < 500 | 500 to 5000
6 | N#CCC(=O)N1CCCN(c2cccc(-c3ccnc4[nH]ccc34)n2)CC1 [compound 19] |  |  |  | < 500 | 500 to 5000 | 500 to 5000
7 | CC(C)CNc1cccc(-c2c(Cl)cnc3[nH]ccc23)n1 [compound 78, 6-(5-Chloro-1H-pyrrolo[2,3-b]pyridin-4-yl)-N-isobutylpyridin-2-anine] |  |  |  | 500 to 5000 | 500 to 5000 | 500 to 5000
8 | Clc1cnc2[nH]ccc2c1-c1cccc(NC2CCCC2)n1 [compound 32, 6-(5-Chloro-1H-pyrrolo[2,3-b]pyridin-4-yl)-N-cyclopentylpyrdin-2-anine] |  |  |  | 500 to 5000 | 500 to 5000 | > 5000
9 | O=C(NCC(F)(F)F)[C@H](CO)Nc1nc(-c2ccnc3[nH]ccc23)ncc1F [compound 204] | 500 to 5000 | 500 to 5000 | < 500 |  |  | 
10 | N#Cc1ccc(-c2ccnc3[nH]ccc23)s1 [compound 108, 5-(1H-Pyrrolo[2,3-b]pyridin-4-yl)-thiophene-2-carbonitrile] |  |  |  | < 500 | < 500 | < 500
11 | CN(C)C1CCN(C(=O)c2cc(-c3ccnc4[nH]ccc34)c[nH]2)C1 (stereo not drawn) [compound 371] | 500 to 5000 | 500 to 5000 | 500 to 5000 |  |  | 
12 | CC(=O)N1[C@H](C)CN(c2cccc(-c3ccnc4[nH]ccc34)n2)C[C@@H]1C [compound 22] |  |  |  | < 500 | 500 to 5000 | < 500
13 | CS(=O)(=O)Nc1ccccc1-c1ccnc2[nH]ccc12 [compound 247] | > 5000 | > 4000 | > 5000 |  |  | 
14 | CN(C)CCCN(C)C(=O)c1cc(-c2ccnc3[nH]ccc23)c[nH]1 [compound 365] | 500 to 5000 | < 500 | 500 to 5000 |  |  | 
15 | O=C(NCCC(F)(F)F)c1cccc(-c2ccnc3[nH]ccc23)c1 [compound 252] | 500 to 5000 | 500 to 5000 | < 500 |  |  | 
16 | CC(=O)c1ccccc1-c1ccnc2[nH]ccc12 [compound 213] | > 5000 | > 4000 | > 5000 |  |  | 
17 | c1ccc(-c2ccccc2-c2ccnc3[nH]ccc23)cc1 [compound 226] | > 5000 | > 4000 | > 5000 |  |  | 
18 | O=C(CNc1nc(-c2ccnc3[nH]ccc23)ncc1F)NCC(F)(F)F [compound 192] | 500 to 5000 | > 4000 | < 500 |  |  | 
19 | Cc1cc(F)ccc1-c1ccnc2[nH]ccc12 [compound 243] | > 5000 | 500 to 5000 | 500 to 5000 |  |  | 
20 | CCN(Cc1ccccn1)C(=O)c1cc(-c2ccnc3[nH]ccc23)c[nH]1 [compound 305] | < 500 | 500 to 5000 | < 500 |  |  | 
21 | COc1cc(-c2ccnc3[nH]ccc23)cc(OC)c1OC [compound 40, 4-(3,4,5-Trimethoxy-phenyl)-1H-pyrrolo[2,3-b]pyridine] |  |  |  | 500 to 5000 | 500 to 5000 | 500 to 5000

Continued, values first:

Row | Ki (JAK2; [1]) [nM] | Ki (ROCK I; [1]) [nM] | Ki (JAK3; [1]) [nM] | Ki (JAK2; enzyme inhibition, Table 5) [nM] | Ki (ROCK I; [2]) [nM] | Ki (JAK3; enzyme inhibition, Table 5) [nM] | Structure (SMILES)
22 | < 500 | > 4000 | < 500 |  |  |  | Clc1cnc2[nH]ccc2c1Nc1cccc(-c2cnco2)c1 [compound 156]
23 | < 500 | 500 to 5000 | < 500 |  |  |  | Clc1cnc2[nH]ccc2c1-c1csc2ccccc12 [compound 142]
24 | < 500 | 500 to 5000 | < 500 |  |  |  | O=C(c1cc(-c2c(Cl)cnc3[nH]ccc23)c[nH]1)N1CCCC(O)C1 (stereo not drawn) [compound 356]
25 | < 500 | 500 to 5000 | < 500 |  |  |  | CCC(=O)N1CC[C@@H](Nc2c(Cl)cnc3[nH]ccc23)C1 [compound 176]
26 | < 500 | < 500 | < 500 |  |  |  | O=C(NC1CCC1)c1cc(-c2ccnc3[nH]ccc23)c[nH]1 [compound 287]
27 | < 500 | < 500 | < 500 |  |  |  | CCCN(CCC#N)C(=O)c1ccc(-c2ccnc3[nH]ccc23)s1 [compound 320]
28 | < 500 | < 500 | < 500 |  |  |  | N#CCN(Cc1cccc(Cl)c1)C(=O)c1cc(-c2c(F)cnc3[nH]ccc23)c[nH]1 [compound 399]
29 | < 500 | 500 to 5000 | < 500 |  |  |  | N#CCCN(Cc1ccccc1)C(=O)c1cc(-c2c(Cl)cnc3[nH]ccc23)c[nH]1 [compound 343]
30 | < 500 | < 500 | < 500 |  |  |  | CN(CC(F)(F)F)C(=O)c1cc(-c2ccnc3[nH]ccc23)c[nH]1 [compound 376]
31 | < 500 | < 500 | < 500 |  |  |  | CCCN(CCC)C(=O)c1ccc(-c2ccnc3[nH]ccc23)s1 [compound 325]
32 | < 500 | > 4000 | < 500 |  |  |  | NC(=O)C1CCCN1C(=O)c1cc(-c2c(Cl)cnc3[nH]ccc23)c[nH]1 (stereo not drawn) [compound 352]
33 | < 500 | 500 to 5000 | < 500 |  |  |  | O=C(c1cc(-c2c(Cl)cnc3[nH]ccc23)c[nH]1)N1CCCC1C(F)(F)F (stereo not drawn) [compound 358]
34 | < 500 | > 4000 | < 500 |  |  |  | O=C1NCCCC[C@@H]1Nc1c(Cl)cnc2[nH]ccc12 [compound 228]
35 | < 500 | 500 to 5000 | < 500 |  |  |  | CN(CC(F)(F)F)C(=O)c1cc(-c2c(Cl)cnc3[nH]ccc23)c[nH]1 [compound 360]
36 | < 500 | > 4000 | < 500 |  |  |  | CCCOC(=O)N1CC[C@H](Nc2c(Cl)cnc3[nH]ccc23)C1 [compound 167]
37 | < 500 | 500 to 5000 | < 500 |  |  |  | CC1CCC(C)N1C(=O)c1cc(-c2c(Cl)cnc3[nH]ccc23)c[nH]1 (stereo not drawn) [compound 359]
38 | < 500 | 500 to 5000 | < 500 |  |  |  | N#CCCN(CCC(F)(F)F)C(=O)c1cc(-c2c(F)cnc3[nH]ccc23)c[nH]1 [compound 384]
39 | < 500 | 500 to 5000 | < 500 |  |  |  | O=C(NCC1CC1)c1csc(-c2ccnc3[nH]ccc23)n1 [compound 412]
40 | < 500 | < 500 | 500 to 5000 |  |  |  | O=C(c1csc(-c2ccnc3[nH]ccc23)n1)N1CC=CC1 [compound 415]
41 | < 500 | > 4000 | < 500 |  |  |  | N#Cc1ccc(Cl)cc1Nc1c(Cl)cnc2[nH]ccc12 [compound 159]
42 | < 500 | 500 to 5000 | < 500 |  |  |  | O=C(c1cc(-c2c(F)cnc3[nH]ccc23)c[nH]1)N(CCC(F)(F)F)Cc1ccccc1 [compound 389]
43 | < 500 | > 4000 | < 500 |  |  |  | N#CCC(=O)N1CC[C@H](Nc2c(Cl)cnc3[nH]ccc23)C1 [compound 191]
44 | < 500 | < 500 | 500 to 5000 |  |  |  | CC(C)CN(CC(C)C)C(=O)c1ccc(-c2ccnc3[nH]ccc23)s1 [compound 327]
45 | < 500 | 500 to 5000 | < 500 |  |  |  | CCN(Cc1ccncc1)C(=O)c1cc(-c2c(Cl)cnc3[nH]ccc23)c[nH]1 [compound 353]
